Assays:
rat model of OCD [1] = experiment: Observing Response Task (ORT), rat model of compulsive-like checking in OCD (sign-trackers = OCD model, goal-trackers = controls); assay type: in vivo
Source text: OCD may be studied using animal models and such models may be used to evaluate compounds of the present invention. One model may be a rat model of compulsive-like checking behaviour described by Eagle et al., Behav. Brain Res, 1 May 2014; 264(100): 207-29. Briefly, rats are trained to work for palatable food which is unpredictably available for responding on one of two levers in an operant chamber. The rats can gain information about the location of the effective lever by making ‘observing responses’ on a third lever at the rear of the chamber. Predictably, responding on this lever is increased under conditions of uncertainty, as this adaptive checking increases the chance of food reward. However, some rats respond excessively on the observing lever and this can be disadvantageous or ‘non-functional’. This excessive checking behaviour is boosted by treatment with dopamine D2 receptor drugs such as quinpirole and also if there is a prior tendency in rats to over-respond to conditioning signals for food (‘sign-tracking’), associated with elevated dopamine activity in the nucleus accumbens. Rats who respond to the food itself are called goal-trackers. […] Moreover, in a human version of this test (i.e. involving essentially the same task for humans as for rodents), it has been shown that OCD patients check more than healthy control volunteers (Morein-Zamir et al., Q. J. Exp. Psychol. (Hove), 2018 October; 71(10): 2052-2069).
Male Lister-hooded rats (n=48, Charles River, UK) were group-housed in fours and maintained at approximately 95% free-feeding weight. Experiments were conducted during the dark phase of a reversed 12-hour light-dark cycle (lights off at 07:00). This research was conducted on UK Home Office Project Licence PA9FBFA9F and was regulated under the Animals (Scientific Procedures) Act 1986 Amendment Regulations 2012 following ethical review by the University of Cambridge Animal Welfare and Ethical Review Body.
The 48 male Lister-Hooded rats were trained on the Observing Response Task (ORT) and classified as sign-trackers […] or goal-trackers (n=24) following AutoShaping training, as described previously. Based on the research described above, the sign-tracker rats provide the OCD model and the goal-trackers are controls.
The ‘drug treatment’ data refer to behaviour under the influence of the specific dose (3 mg/kg or 10 mg/kg), 2 hours after an intraperitoneal injection. The ‘0 mg/kg’ data refer to an intraperitoneal injection of the 0.9% (w/v) physiological saline vehicle.
Rats were divided into groups to receive different doses of AZD-8529 in a counterbalanced order. […] “mg/kg” refers to a dose that was determined based on the body weight of the rat. For example, a rat weighing 0.5 kg receiving a dose of 3 mg/kg would receive a dose of 1.5 mg.
All statistical analyses were conducted using IBM SPSS Statistics v27. Data were analysed using repeated measures ANOVAs. Omnibus ANOVAs were first conducted to determine whether the order of drug dosing influenced the behavioural outcomes, and whether there were differences in baseline levels of responding. Planned ANOVAs assessing the drug administration sessions only were subsequently conducted.

rat model of OCD [2] = experiment: as above; assay type: in vivo; conditions: rats, 30 mg/kg single intraperitoneal dose

- increased responding on the active lever during the cue (discrimination with light on) (rat model of OCD [1]; 3 mg/kg i.p., full cohort, p=0.38): not seen
- number of rewards earned during the session (rat model of OCD [1]; 10 mg/kg i.p., full cohort, compared to vehicle and 3 mg/kg, p<0.001): reduced the numbers of reward earned
- increased responding on the active lever during the cue (discrimination with light on) (rat model of OCD [1]; 10 mg/kg i.p., full cohort, p=0.21): not seen
SMILES: Cc1cc(-c2nc(CN3CCNCC3)no2)cc2c1C(=O)N(Cc1ccc(OC(F)(F)F)cc1)C2 [AZD-8529, 7-methyl-5-(3-piperazin-1-ylmethyl-[1,2,4]oxadiazol-5-yl)-2-(4-trifluoromethoxybenzyl)-2,3-dihydroisoindol-1-one]
- number of rewards earned during the session (rat model of OCD [1]; 3 mg/kg i.p. vs vehicle, full cohort, p=0.91): equivalent numbers of rewards were earned
- dysfunctional checking (eOLPs) (rat model of OCD [1]; OCD model (sign-trackers), 3 mg/kg i.p. vs 0 mg/kg control, p<0.002): reduction in dysfunctional checking
- dysfunctional checking (eOLPs) (rat model of OCD [1]; OCD model (sign-trackers), 10 mg/kg i.p. vs 0 mg/kg control, p<0.002, not lower than 3 mg/kg (p=0.94)): reduction in dysfunctional checking
- functional checking (Observing Lever Presses, OLPs) (rat model of OCD [1]; OCD model (sign-trackers), 3 and 10 mg/kg i.p., 2 hours after injection, p<0.001): reduced functional checking in a dose-dependent manner
- functional checking (Observing Lever Presses, OLPs) (rat model of OCD [1]; controls (goal-trackers), 3 and 10 mg/kg i.p., 2 hours after injection, p=0.008): reduced functional checking in a dose-dependent manner
- dysfunctional checking (eOLPs) (rat model of OCD [1]; controls (goal-trackers), 3 and 10 mg/kg i.p., all p's>0.079): no overall reduction in dysfunctional checking
- functional checking (Observing Lever Presses, OLPs) (rat model of OCD [1]; full cohort (sign-trackers plus goal-trackers), 3 and 10 mg/kg i.p. vs 0 mg/kg, 2 hours after injection, mesylate salt, p<0.001): reduced functional checking in a dose-dependent manner
- dysfunctional checking (Extra Observing Lever Presses, eOLPs) (rat model of OCD [1]; full cohort, 3 and 10 mg/kg i.p. vs 0 mg/kg, 2 hours after injection, p<0.001): reduced dysfunctional checking in a dose-dependent manner
- adverse effects (rat model of OCD [2]): unexpected adverse gastrointestinal effects
